From the NIST ThermoML archive (doi:10.1007/s10765-006-0122-6)

Conditions: for kinematic viscosity / surface tension liquid-gas: surface light scattering; for speed of sound / thermal diffusivity: dynamic light scattering

FC(C(F)(F)F)C(F)(F)F [1,1,1,2,3,3,3-heptafluoropropane]
Conditions | Critical temperature [K] | kinematic viscosity [m2/s] | speed of sound [m/s] | surface tension liquid-gas [mN/m] | thermal diffusivity [m2/s]
253.15 K, Liquid | – | 2.88e-07 | – | 12.26 | –
263.15 K, Liquid | – | 2.54e-07 | – | 10.96 | –
273.15 K, Liquid | – | 2.28e-07 | – | 9.76 | –
283.15 K, Liquid | – | 2.05e-07 | – | 8.62 | –
293.15 K, Liquid | – | 1.83e-07 | – | 7.46 | –
293.22 K, Liquid | – | – | 437.4 | – | 3.66e-08
303.12 K, Liquid | – | – | 397.8 | – | 3.5e-08
303.15 K, Liquid | – | 1.66e-07 | – | 6.31 | –
313.15 K, Liquid | – | 1.52e-07 | – | 5.25 | –
313.2 K, Liquid | – | – | 356.8 | – | 3.26e-08
323.15 K, Liquid | – | 1.36e-07 | – | 4.23 | –
323.18 K, Liquid | – | – | 315.5 | – | 3.14e-08
332.72 K, Liquid | – | – | 275.1 | – | 2.95e-08
333.15 K, Liquid | – | 1.22e-07 | – | 3.23 | –
342.68 K, Liquid | – | – | 231.6 | – | 2.76e-08
343.15 K, Liquid | – | 1.08e-07 | – | 2.3 | –
345.66 K, Gas | – | – | 92.5 | – | 1.01e-07
348.02 K, Liquid | – | – | 208.4 | – | 2.66e-08
348.15 K, Gas | – | – | 90.6 | – | 9.3e-08
350.65 K, Gas | – | – | 89.4 | – | 8.46e-08
353.02 K, Liquid | – | – | 185.5 | – | 2.51e-08
353.15 K, Gas | – | – | 87.1 | – | 7.64e-08
353.15 K, Liquid | – | 9.43e-08 | – | 1.42 | –
355.64 K, Gas | – | – | 85.1 | – | 6.9e-08
358.09 K, Liquid | – | – | 160.8 | – | 2.36e-08
358.14 K, Gas | – | – | 82.9 | – | 6.06e-08
358.15 K, Liquid | – | 8.74e-08 | – | 1.02 | –
360.64 K, Gas | – | – | 80.4 | – | 5.25e-08
363.09 K, Liquid | – | – | 134.7 | – | 2.11e-08
363.14 K, Gas | – | – | 77.9 | – | 4.41e-08
363.15 K, Liquid | – | 8.08e-08 | – | 0.644 | –
365.63 K, Gas | – | – | 75.2 | – | 3.6e-08
365.9 K, Liquid | – | – | 118.5 | – | 1.92e-08
367.67 K, Gas | – | – | 72.8 | – | 2.91e-08
368.08 K, Liquid | – | – | 106.1 | – | 1.72e-08
368.15 K, Liquid | – | 7.34e-08 | – | 0.314 | –
369.47 K, Gas | – | – | 70.5 | – | 2.26e-08
370.15 K, Liquid | – | 7.03e-08 | – | 0.2 | –
370.2 K, Liquid | – | – | 92.6 | – | 1.42e-08
370.76 K, Gas | – | – | 68.7 | – | 1.78e-08
371.15 K, Liquid | – | 6.79e-08 | – | 0.145 | –
371.41 K, Liquid | – | – | 83.8 | – | 1.21e-08
371.96 K, Gas | – | – | 67 | – | 1.32e-08
372.15 K, Liquid | – | 6.74e-08 | – | – | –
372.19 K, Liquid | – | – | 78.2 | – | 9.91e-09
372.96 K, Gas | – | – | 65.3 | – | 9.21e-09
372.99 K, Liquid | – | – | 72.8 | – | 7.88e-09
373.5 K, Liquid | – | – | 68.3 | – | 6.11e-09
373.95 K, Gas | – | – | 63.6 | – | 4.9e-09
373.99 K, Liquid | – | – | 65.3 | – | 4.34e-09
374.45 K, Gas | – | – | – | – | 2.65e-09
374.49 K, Liquid | – | – | – | – | 2.24e-09
374.65 K, Gas | – | – | – | – | 1.73e-09
374.67 K, Liquid | – | – | – | – | 1.36e-09
Liquid, Visual observation in an unstirred cell | 374.9 | – | – | – | –
